The source of these data is patent US20260232666A1, “COMPOSITIONS AND METHODS FOR INHIBITION OF RAS” (TheRas, Inc., priority 2023, published 2026).

For test [1], the target named is T1, Avi-KRAS G12C (1-169) GppNHp/RAF1 RBD-3×FLAG (52-151) (Homo sapiens, UniProt P01116, G12C).
T1 construct: Avi-KRAS G12C (1-169) GppNHp; Avi (N)
In words: Raf1 RBD-KRAS G12C-GppNHp disruption assay (protein:protein interaction HTRF). It counts as biochemical. A digest of the protocol:
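HTRF measuring RAF1 RBD binding to GppNHp-loaded KRAS G12C (50 nM) in Tris pH 7.5, 100 mM NaCl, 5 mM MgCl2, 10% DMSO. Compound, KRAS, RBD and detection reagents each added sequentially with 1 h room-temperature incubations; 10-point titration; excitation 320 nm, emission 615 nm; activity as % of DMSO; IC50 derived.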
(In general: In TR-FRET formats the signal depends on donor and acceptor labels being close together.)

In test [2] the target is T2, GDP-loaded KRAS4b (amino acids 1-169) G12C/C118S protein (Homo sapiens, UniProt P01116, C118S/G12C).
T2 construct: KRAS4b (amino acids 1-169) G12C/C118S protein; made in house
Kind of test: Covalent cysteine 12 modification by MALDI-TOF MS, GDP-loaded KRAS G12C. It counts as binding. Particulars: 15 minutes reaction time point. A digest of the protocol:
(§1)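 1 μM protein + cpd (1:2.5), HEPES 20 mM/NaCl 150 mM/MgCl2 1 mM pH 7.3, RT, dark, 15 min. Linear MALDI-TOF, sinapinic acid matrix. % mod = modified/(modified + unmodified) peak height.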

The target in test [3] is T3, GTP-loaded KRAS4b (amino acids 1-169) G12C/C118S protein (Homo sapiens, UniProt P01116, C118S/G12C).
T3 construct: KRAS4b (amino acids 1-169) G12C/C118S protein; made in house
Kind of test: Covalent cysteine 12 modification by MALDI-TOF MS, GTP-loaded KRAS G12C. It counts as binding. Conditions: 15 minutes reaction time point. The gist of the method: as §1

By IC50 is commonly meant the concentration needed to halve the response being measured. A lower IC50 goes with higher potency. Regarding `C=CC(=O)N1C[C@H](N(C)c2nc(OC[C@@H]3CCCN3C)nc3c(F)c(-c4ccc(F)c5sc(N)c(C#N)c45)c(C(F)(F)F)cc23)C[C@H]1C` [Compound 147], the IC50 in test [1] was under 500 nM. In addition, the “GDP-KRAS G12C percent of modification” value in test [2] is listed as “A (percent of modification ≥70%)”. For the same molecule, the “GTP-KRAS G12C percent of modification” value in test [3] is “A (percent of modification ≥70%)”.
As for `C=CC(=O)N1C[C@H](N(C)c2nc(OC[C@@]34CCCN3C[C@H](F)C4)nc3cc(-c4ccc(F)c5sc(N)c(C#N)c45)c(F)cc23)C[C@H]1C` [Compound 148], the IC50 in test [1] was under 500 nM. Moreover, in test [2], the “GDP-KRAS G12C percent of modification” value is reported as “A (percent of modification ≥70%)”. Further, the “GTP-KRAS G12C percent of modification” value in test [3] is recorded as “A (percent of modification ≥70%)”.
In test [1], `C=CC(=O)N1CC[C@@H](N(CC)c2nc(OC[C@@]34CCCN3C[C@H](OC)C4)nc3cc(-c4ccc(F)c5sc(N)c(C#N)c45)c(F)cc23)[C@H]1C` [Compound 149] came in with an IC50 of under 500 nM. For the same molecule, the “GDP-KRAS G12C percent of modification” value in test [2] is listed as “A (percent of modification ≥70%)”. Besides, the “GTP-KRAS G12C percent of modification” value in test [3] is listed as “A (percent of modification ≥70%)”.
Turning to `C=CC(=O)N1CC[C@@H](N(CC)c2nc(OC[C@@]34CCCN3C[C@H](OC)C4)nc3c(F)c(-c4ccc(F)c5sc(N)c(C#N)c45)c(C(F)(F)F)cc23)[C@H]1C` [Compound 150], the IC50 in test [1] was under 500 nM. For the same molecule, in test [2], the “GDP-KRAS G12C percent of modification” value is “A (percent of modification ≥70%)”. In test [3], the “GTP-KRAS G12C percent of modification” value is given as “A (percent of modification ≥70%)”.
Molecule `C=CC(=O)N1C[C@H](N(C)c2nc(OC[C@@H]3CCCN3C)nc3c(F)c(-c4ccc(F)c5sc(N)c(C#N)c45)c(C(F)(F)F)cc23)C[C@@H]1C` [Compound 153] displayed an IC50 in test [1] of under 500 nM. Further, the “GDP-KRAS G12C percent of modification” value in test [2] is recorded as “A (percent of modification ≥70%)”. Also, the “GTP-KRAS G12C percent of modification” value in test [3] was “A (percent of modification ≥70%)”.
As to `C=CC(=O)N1CC[C@@H](N(CC)c2nc(OC[C@@H]3CCCN3C)nc3c(F)c(-c4nc(N)cc(C)c4C(F)(F)F)c(C(F)(F)F)cc23)[C@H]1C` [Compound 155], the IC50 in test [1] is under 500 nM. Further, in test [2], the “GDP-KRAS G12C percent of modification” value is given as “C (10%≤percent of modification <50%)”. Moreover, the “GTP-KRAS G12C percent of modification” value in test [3] is recorded as “C (10%≤percent of modification <50%)”.
For `C=CC(=O)N1CC[C@@H](N(C)c2nc(OC[C@]34CCCN3C[C@H](OC)C4)nc3c(F)c(-c4ccc(F)c5sc(N)c(C#N)c45)c(C(F)(F)F)cc23)[C@H]1C` [Compound 156], the concentration for half-maximal inhibition (IC50) in test [1] is under 500 nM. Besides, in test [2], the “GDP-KRAS G12C percent of modification” value was “A (percent of modification ≥70%)”. The “GTP-KRAS G12C percent of modification” value in test [3] is recorded as “A (percent of modification ≥70%)”.
`C=CC(=O)N1CC[C@@H](N(CC)c2nc(OC[C@]34CCCN3C[C@H](OC)C4)nc3c(F)c(-c4ccc(F)c5sc(N)c(C#N)c45)c(C(F)(F)F)cc23)[C@H]1C` [Compound 158] returned a half-inhibitory concentration (IC50) in test [1] of under 500 nM. Besides, the “GDP-KRAS G12C percent of modification” value in test [2] is “A (percent of modification ≥70%)”. In addition, the “GTP-KRAS G12C percent of modification” value in test [3] is given as “B (50≤percent of modification <70%)”.
With `C=CC(=O)N1CC[C@@H](N(CC)c2nc(OC[C@]34CCCN3C[C@H](F)C4)nc3c(F)c(-c4ccc(F)c5sc(N)c(C#N)c45)c(C(F)(F)F)cc23)[C@H]1C` [Compound 159], in test [1], the IC50 was under 500 nM. Moreover, the “GDP-KRAS G12C percent of modification” value in test [2] is “A (percent of modification ≥70%)”. Moreover, the “GTP-KRAS G12C percent of modification” value in test [3] is listed as “B (50≤percent of modification <70%)”.
In test [1], `C=CC(=O)N1CC[C@@H](N(C)c2nc(OC[C@]34CCCN3C[C@H](OC)C4)nc3c(F)c(-c4ccc(F)c5sc(N)c(C#N)c45)c(Cl)cc23)[C@H]1C` [Compound 161] showed an IC50 of under 500 nM. Further, in test [2], the “GDP-KRAS G12C percent of modification” value is recorded as “A (percent of modification ≥70%)”. Further, the “GTP-KRAS G12C percent of modification” value in test [3] is reported as “A (percent of modification ≥70%)”.
As to `C=CC(=O)N1CC[C@@H](N(CC)c2nc(OC[C@@]34CCCN3C[C@H](OC)C4)nc3c(F)c(-c4ccc(F)c5sc(N)c(C#N)c45)c(Cl)cc23)[C@H]1C` [Compound 163], the IC50 in test [1] was under 500 nM. For the same molecule, in test [2], the “GDP-KRAS G12C percent of modification” value is reported as “A (percent of modification ≥70%)”. The “GTP-KRAS G12C percent of modification” value in test [3] is recorded as “A (percent of modification ≥70%)”.
`C=CC(=O)N1CC[C@@H](N(CC)c2nc(OC[C@]34CCCN3C[C@H](OC)C4)nc3c(F)c(-c4ccc(F)c5sc(N)c(C#N)c45)c(Cl)cc23)[C@H]1C` [Compound 164] had an IC50 in test [1] of under 500 nM. Moreover, the “GDP-KRAS G12C percent of modification” value in test [2] is given as “A (percent of modification ≥70%)”. Besides, the “GTP-KRAS G12C percent of modification” value in test [3] is “A (percent of modification ≥70%)”.
In test [1], `C=CC(=O)N1CC[C@@H](N(CC)c2nc(OC[C@]34CCCN3C[C@H](F)C4)nc3c(F)c(-c4ccc(F)c5sc(N)c(C#N)c45)c(Cl)cc23)[C@H]1C` [Compound 165] came in with an IC50 of under 500 nM. For the same molecule, the “GDP-KRAS G12C percent of modification” value in test [2] is listed as “A (percent of modification ≥70%)”. In addition, the “GTP-KRAS G12C percent of modification” value in test [3] is on record as “A (percent of modification ≥70%)”.
On to `C=CC(=O)N1CC[C@@H](N(CC)c2nc(OC[C@]34CCCN3C[C@H](F)C4)nc3cc(-c4ccc(F)c5sc(N)c(C#N)c45)c(F)cc23)[C@H]1C` [Compound 167], for which the IC50 in test [1] was under 500 nM. The “GDP-KRAS G12C percent of modification” value in test [2] is on record as “A (percent of modification ≥70%)”. Further, the “GTP-KRAS G12C percent of modification” value in test [3] was “A (percent of modification ≥70%)”.
`C=CC(=O)N1CC[C@@H](N(CC)c2nc(OC[C@]34CCCN3C[C@H](OC)C4)nc3c(F)c(-c4ccc(F)c5sc(N)c(C#N)c45)ccc23)[C@H]1C` [Compound 169]: the IC50 in test [1] was under 500 nM. Moreover, the “GDP-KRAS G12C percent of modification” value in test [2] is listed as “A (percent of modification ≥70%)”. The “GTP-KRAS G12C percent of modification” value in test [3] is “A (percent of modification ≥70%)”.
